Results: US20150191469A1, “COMPOUNDS AND METHODS FOR TREATING HIV” (priority 2012, published 2015)

System: HIV
Assay: MT4 assay: antiviral HIV activity (cell protection, cell titer glo readout at 96 hours)
Assay type: cell-based
Conditions: Human immunodeficiency virus 1, MT4, 96 h, MT4 cells, cell titer glo readout at 96 hours, 10 point dose response; read-out: HIV MT4 Assay IC50
Outline: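 MT-4 cells infected with HIV, with inhibition readout by CellTiter-Glo luminescence at 96 h relative to no-compound control. Cytotoxicity measured in parallel under the same conditions. IC50 from a 10-point, 3-4-fold dilution series spanning >1000-fold, fitted with a four-parameter logistic equation.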

| SMILES | IC50 |
| --- | --- |
| Cc1nc2c(cc(C(=O)N3CCn4cnnc4C3)n2C)c(-c2cc(F)c3c(c2C)CCCO3)c1[C@H](OC(C)(C)C)C(=O)O [Example 166] | 50000 nM |
| Cc1nc2c(cc(C(=O)N3CCc4ccc(S(=O)(=O)NC(C)C)cc4C3)n2C)c(-c2cc(F)c3c(c2C)CCCO3)c1[C@H](OC(C)(C)C)C(=O)O [Example 167] | 357 nM |
| Cc1nc2c(cc(CNC(=O)N3CCCN(C4COC4)CC3)n2C)c(-c2cc(F)c3c(c2C)CCCO3)c1[C@H](OC(C)(C)C)C(=O)O [Example 168] | 12600 nM |
| Cc1nc2c(cc(C(=O)N3CCN(c4ccncc4)CC3)n2C)c(-c2cc(F)c3c(c2C)CCCO3)c1[C@H](OC(C)(C)C)C(=O)O [Example 169] | 1240 nM |
| Cc1nc2c(cc(C(=O)N3CCN(C)CC3)n2C)c(-c2cc(F)c3c(c2C)CCCO3)c1[C@H](OC(C)(C)C)C(=O)O [Example 173] | 354 nM |
| Cc1nc2c(cc(C(=O)N3CCC(c4ccc(C(N)=O)cc4)CC3)n2C)c(-c2cc(F)c3c(c2C)CCCO3)c1[C@H](OC(C)(C)C)C(=O)O [Example 178] | 176 nM |
| Cc1nc2c(cc(C(=O)N3CCC[C@H]3C(=O)N(C)c3ccc4c(cnn4C)c3)n2C)c(-c2cc(F)c3c(c2C)CCCO3)c1[C@H](OC(C)(C)C)C(=O)O [Example 179] | 847 nM |
| Cc1nc2c(cc(C(=O)N3CCN(S(C)(=O)=O)CC3)n2C)c(-c2cc(F)c3c(c2C)CCCO3)c1[C@H](OC(C)(C)C)C(=O)O [Example 180] | 1920 nM |
| Cc1nc2c(cc(C(=O)N3CCC(F)(F)CC3)n2C)c(-c2cc(F)c3c(c2C)CCCO3)c1[C@H](OC(C)(C)C)C(=O)O [Example 181] | 42 nM |
| Cc1nc2c(cc(C(=O)N3CCN4CCCC4C3)n2C)c(-c2cc(F)c3c(c2C)CCCO3)c1[C@H](OC(C)(C)C)C(=O)O (stereo partly shown) [Example 182] | 131 nM |
| Cc1nc2c(cc(C(=O)N3Cc4ccccc4C3)n2C)c(-c2cc(F)c3c(c2C)CCCO3)c1[C@H](OC(C)(C)C)C(=O)O [Example 184] | 42 nM |
| Cc1nc2c(cc(C(=O)N3C[C@@H]4CC[C@H]3CN(C3COC3)C4)n2C)c(-c2cc(F)c3c(c2C)CCCO3)c1[C@H](OC(C)(C)C)C(=O)O [Example 188] | 86.7 nM |
| Cc1nc2c(cc(C(=O)N3CC4CN(C5COC5)CC4C3)n2C)c(-c2cc(F)c3c(c2C)CCCO3)c1[C@H](OC(C)(C)C)C(=O)O (stereo partly shown) [Example 189] | 1190 nM |
| CC(=O)N1CCCN(C(=O)c2cc3c(-c4cc(F)c5c(c4C)CCCO5)c([C@H](OC(C)(C)C)C(=O)O)c(C)nc3n2C)CC1 [Example 197] | 6810 nM |
| Cc1nc2c(cc(C(=O)N3CCC4(CC3)CC(Cc3cccnc3)C(=O)O4)n2C)c(-c2cc(F)c3c(c2C)CCCO3)c1[C@H](OC(C)(C)C)C(=O)O (stereo partly shown) [Example 200] | 8050 nM |
| Cc1nc2c(cc(C(=O)N3CCN(C(=O)C4CCCCC4)CC3)n2C)c(-c2cc(F)c3c(c2C)CCCO3)c1[C@H](OC(C)(C)C)C(=O)O [Example 201] | 65.7 nM |
| Cc1nc2c(cc(C(=O)N(CCC(C)C)CCC(C)C)n2C)c(-c2cc(F)c3c(c2C)CCCO3)c1[C@H](OC(C)(C)C)C(=O)O [Example 202] | 92.8 nM |
| Cc1nc2c(cc(C(=O)N3CCN(CC(=O)N4CCCC4)CC3)n2C)c(-c2cc(F)c3c(c2C)CCCO3)c1[C@H](OC(C)(C)C)C(=O)O [Example 203] | 6040 nM |
| Cc1nc2c(cc(C(=O)N3CCN(CC(=O)N4CCOCC4)CC3)n2C)c(-c2cc(F)c3c(c2C)CCCO3)c1[C@H](OC(C)(C)C)C(=O)O [Example 204] | 11400 nM |
| Cc1nc2c(cc(C(=O)N3CCOC(C)(C(=O)NC4CCCC4)C3)n2C)c(-c2cc(F)c3c(c2C)CCCO3)c1[C@H](OC(C)(C)C)C(=O)O (stereo partly shown) [Example 205] | 373 nM |
| Cc1nc2c(cc(C(=O)N3CCCN(c4nccs4)CC3)n2C)c(-c2cc(F)c3c(c2C)CCCO3)c1[C@H](OC(C)(C)C)C(=O)O [Example 206] | 126 nM |
| CCN(CC)C(=O)C1CCCN(C(=O)c2cc3c(-c4cc(F)c5c(c4C)CCCO5)c([C@H](OC(C)(C)C)C(=O)O)c(C)nc3n2C)C1 (stereo partly shown) [Example 207] | 311 nM |
| Cc1cnc(CNC(=O)c2cc3c(-c4cc(F)c5c(c4C)CCCO5)c([C@H](OC(C)(C)C)C(=O)O)c(C)nc3n2C)cn1 [Example 211] | 121 nM |
| Cc1nc2c(cc(C(=O)NC[C@H](C)c3ccccc3)n2C)c(-c2cc(F)c3c(c2C)CCCO3)c1[C@H](OC(C)(C)C)C(=O)O [Example 214] | 44.6 nM |
| COc1ccc([C@@H](C)NC(=O)c2cc3c(-c4cc(F)c5c(c4C)CCCO5)c([C@H](OC(C)(C)C)C(=O)O)c(C)nc3n2C)cc1 [Example 216] | 41.3 nM |
| CC(=O)NC1(c2ccccc2)CCN(C(=O)c2cc3c(-c4cc(F)c5c(c4C)CCCO5)c([C@H](OC(C)(C)C)C(=O)O)c(C)nc3n2C)CC1 [Example 217] | 3380 nM |
| CC1=NC2(CCN(C(=O)c3cc4c(-c5cc(F)c6c(c5C)CCCO6)c([C@H](OC(C)(C)C)C(=O)O)c(C)nc4n3C)CC2)N=C1c1ccccc1 [Example 218] | 47.3 nM |
| Cc1nc2c(cc(C(=O)N3CCN(CC(=O)N(C)c4ccccc4)CC3)n2C)c(-c2cc(F)c3c(c2C)CCCO3)c1[C@H](OC(C)(C)C)C(=O)O [Example 219] | 807 nM |
| Cc1nc2c(cc(C(=O)N3CCN(C(=O)N(C)C)CC3)n2C)c(-c2cc(F)c3c(c2C)CCCO3)c1[C@H](OC(C)(C)C)C(=O)O [Example 220] | 1770 nM |

Continued by falling IC50, values first:

| IC50 | SMILES |
| --- | --- |
| 41.1 nM | Cc1nc2c(cc(-c3cnn(CC4CN(C(=O)OC(C)(C)C)C4)c3)n2C)c(-c2cc(F)c3c(c2C)CCCO3)c1[C@H](OC(C)(C)C)C(=O)O [Example 186] |
| 39.6 nM | Cc1nc2c(cc(C(=O)N3CCN(c4nccs4)CC3)n2C)c(-c2cc(F)c3c(c2C)CCCO3)c1[C@H](OC(C)(C)C)C(=O)O [Example 208] |
| 33.9 nM | Cc1nc2c(cc(C(=O)N3CCc4ccccc43)n2C)c(-c2cc(F)c3c(c2C)CCCO3)c1[C@H](OC(C)(C)C)C(=O)O [Example 183] |
| 32.6 nM | Cc1nc2c(cc(C(=O)N3CCC(c4ccncc4)CC3)n2C)c(-c2cc(F)c3c(c2C)CCCO3)c1[C@H](OC(C)(C)C)C(=O)O [Example 171] |
| 32.2 nM | Cc1nc2c(cc(-c3ccn(C4CN(C(=O)OC(C)(C)C)C4)n3)n2C)c(-c2cc(F)c3c(c2C)CCCO3)c1[C@H](OC(C)(C)C)C(=O)O [Example 185] |
| 30 nM | Cc1nc2c(cc(C(=O)NC[C@@H](C)c3ccccc3)n2C)c(-c2cc(F)c3c(c2C)CCCO3)c1[C@H](OC(C)(C)C)C(=O)O [Example 215] |
| 28.8 nM | Cc1nc2c(cc(C(=O)NCCc3ccccc3)n2C)c(-c2cc(F)c3c(c2C)CCCO3)c1[C@H](OC(C)(C)C)C(=O)O [Example 212] |
| 27.6 nM | Cc1nc2c(cc(C(=O)N3CCN(c4ncccn4)CC3)n2C)c(-c2cc(F)c3c(c2C)CCCO3)c1[C@H](OC(C)(C)C)C(=O)O [Example 199] |
| 26.5 nM | Cc1nc2c(cc(-c3ccn(C4CN(C5CCOCC5)C4)n3)n2C)c(-c2cc(F)c3c(c2C)CCCO3)c1[C@H](OC(C)(C)C)C(=O)O [Example 187] |
| 26.3 nM | Cc1nc2c(cc(C(=O)N3CCN(C(=O)OCc4ccccc4)CC3)n2C)c(-c2cc(F)c3c(c2C)CCCO3)c1[C@H](OC(C)(C)C)C(=O)O [Example 198] |
| 26 nM | Cc1nc2c(cc(C(=O)NC(C)(C)c3ccccc3)n2C)c(-c2cc(F)c3c(c2C)CCCO3)c1[C@H](OC(C)(C)C)C(=O)O [Example 195] |
| 25.6 nM | Cc1nc2c(cc(C(=O)N3CCC(C)CC3)n2C)c(-c2cc(F)c3c(c2C)CCCO3)c1[C@H](OC(C)(C)C)C(=O)O [Example 176] |
| 16.6 nM | Cc1nc2c(cc(C(=O)N(C)Cc3ccccc3)n2C)c(-c2cc(F)c3c(c2C)CCCO3)c1[C@H](OC(C)(C)C)C(=O)O [Example 192] |
| 14.1 nM | Cc1nc2c(cc(C(=O)N[C@H](C)c3ccccc3)n2C)c(-c2cc(F)c3c(c2C)CCCO3)c1[C@H](OC(C)(C)C)C(=O)O [Example 190] |
| 12.3 nM | Cc1nc2c(cc(C(=O)N3CCC4(CCCC4)CC3)n2C)c(-c2cc(F)c3c(c2C)CCCO3)c1[C@H](OC(C)(C)C)C(=O)O [Example 193] |
| 12.3 nM | Cc1nc2c(cc(C(=O)N3CCN(C(C)c4ccccc4)CC3)n2C)c(-c2cc(F)c3c(c2C)CCCO3)c1[C@H](OC(C)(C)C)C(=O)O (stereo partly shown) [Example 196] |
| 9.4 nM | Cc1nc2c(cc(C(=O)NCc3ccccc3)n2C)c(-c2cc(F)c3c(c2C)CCCO3)c1[C@H](OC(C)(C)C)C(=O)O [Example 209] |
| 5.9 nM | Cc1nc2c(cc(C(=O)N3CCN(c4ccccc4)CC3)n2C)c(-c2cc(F)c3c(c2C)CCCO3)c1[C@H](OC(C)(C)C)C(=O)O [Example 172] |
| 5 nM | Cc1nc2c(cc(C(=O)N[C@@H](C)c3ccccc3)n2C)c(-c2cc(F)c3c(c2C)CCCO3)c1[C@H](OC(C)(C)C)C(=O)O [Example 210] |
| 4.9 nM | Cc1nc2c(cc(C(=O)N3CCC(c4c[nH]c5ccccc45)CC3)n2C)c(-c2cc(F)c3c(c2C)CCCO3)c1[C@H](OC(C)(C)C)C(=O)O [Example 191] |
| 4.8 nM | Cc1nc2c(cc(C(=O)N3CCC(c4ccc(C#N)cc4)CC3)n2C)c(-c2cc(F)c3c(c2C)CCCO3)c1[C@H](OC(C)(C)C)C(=O)O [Example 175] |
| 4.7 nM | Cc1nc2c(cc(C(=O)N3CCC(c4cccc(C#N)c4)CC3)n2C)c(-c2cc(F)c3c(c2C)CCCO3)c1[C@H](OC(C)(C)C)C(=O)O [Example 177] |
| 4.2 nM | Cc1nc2c(cc(C(=O)N3CCC(c4ccccc4)CC3)n2C)c(-c2cc(F)c3c(c2C)CCCO3)c1[C@H](OC(C)(C)C)C(=O)O [Example 170] |
| 3.9 nM | Cc1nc2c(cc(C(=O)NCCOc3ccccc3)n2C)c(-c2cc(F)c3c(c2C)CCCO3)c1[C@H](OC(C)(C)C)C(=O)O [Example 213] |
| 3.6 nM | Cc1nc2c(cc(C(=O)N3CCc4ccccc4C3)n2C)c(-c2cc(F)c3c(c2C)CCCO3)c1[C@H](OC(C)(C)C)C(=O)O [Example 174] |
| 1.5 nM | Cc1nc2c(cc(C(=O)N3CC(c4ccccc4)C3)n2C)c(-c2cc(F)c3c(c2C)CCCO3)c1[C@H](OC(C)(C)C)C(=O)O [Example 194] |
